pKi: −log10 of the molar value. Where a SMILES comes first, the peptide text is derived from it. [ ]: non-standard residue; d: D form.
Legend:
PSD-95-PDZ2 [1] = biological target: T1, PSD-95-PDZ2 (Homo sapiens, UniProt P78352); test: Fluorescence polarization (FP) competition assay against cyclic nNOS TAMRA probe; type: binding; settings: for pKi: FP competition, cyclic nNOS TAMRA probe, mean of triplicates, N.B. = not binding, read-out: Ki; for Relative Ki (Ki mut/Ki WT): FP inhibition constant normalized to WT value
T1 construct: 7xHis (N); made in house; host or cells: Escherichia coli B21 pLys (for the mutants, 'as previously described')
Experimental: Fluorescence polarization (FP). FP assays were performed in a 384-well plate format. Fluorescence polarization was measured using a Safire 2 plate reader. The instrument Z-factor was optimized for each assay. The G-factor was calibrated to an initial milli polarization value of 20. The wavelength for the cyclic nNOS β-hairpin TAMRA probe was: ex: 530 nm and em: 580 nm. Every measurement was performed in NaPI 50 mM, 50 mM NaCl and 1% BSA at pH 7.2, 25° C. […] The curves were done in triplicates. Then, the polarization was fitted into a one-site binding model using Prism software 8.0 (GraphPad), from which the Kd can be measured. […] The mili polarization (mP) values were plotted as a function of peptide concentration and fitted to a sigmoidal dose-response curve using Prism software 8.0 (GraphPad). The Ki values were calculated according to Nikolovska-Coleska Z. et al.^40-41

PSD-95-PDZ2 [2] = biological target: T2, PSD-95-PDZ2 (Homo sapiens, UniProt P78352, V178C); test: SPOT peptide array screening with TAMRA labelled PSD-95-PDZ2; type: binding; settings: SPOT array, TAMRA labelled PSD-95-PDZ2-V178C, normalized to WT
T2 construct: screened with the TAMRA labelled PSD-95-PDZ2-V178C domain; 7xHis (N); made in house
Experimental: SPOT peptide array synthesis. To generate the cyclic nNOSβ-hairpin arrays, we used the Intavis MultiPep spotter (Intavis Bioanalytical instruments). The membranes employed in this assay were SynthoPlan APEG CE (standard amino-modified acid stable sellulose membrane with a PEG-spacer), 10×15 cm with a loading of 400 nmol cm^−2. Solutions of 0.3 M Fmoc-AA-OH and 0.3 M Oxyma Pure were prepared in N-methyl-2-pyrrolidone (NMP). The activator solution consisted of 0.3 M DIC and 0.3 M of 2,4,6-trimethylpyridine (Collidine) in NMP. The capping solution consisted of a solution of 1 M acetic anhydride and 0.05 M of 4-dimethylaminopyridine (DMAP) in NMP. The deprotection solution consisted of 20% piperidine in NMP. AA couplings were performed 1 h,4 times. Deprotection of the Fmoc groups was performed 15min,2 times. Membrane washing between couplings or deprotections was performed with NMP and ethanol. Elongation of peptides in cellulose membrane was started by coupling first the Fmoc-PEG(9)-OH (Iris Biotech) and the subsequent mixture of Fmoc-Gly-OH (25%) and Boc-Gly-OH (75%) to lower the total loading of the membrane. Afterwards, the resin was capped with the capping solution and extensively washed and soaked in bromophenol blue (BPB) as a quality control to reveal the SPOTS with a functional amino group. Then, we coupled the quasi-orthogonal group Fmoc-Glu-PP, and carried out the rest of the synthesis until peptide completion. The cellulose bound linear peptides were finally treated with a solution of 95% DCM, 3% TIPS and 2% TFA 3 times, 20 min. to remove the quasi-orthogonal group. Afterwards, the membrane was washed 5 times with DCM and neutralized with 5% DIPEA in DCM. The membrane was then washed 5 more times with DCM, 5 times with NMP and cyclized with 0.3M PyAOP and 0.3M of DIPEA in DMF for 3 h or overnight. Finally, the membrane was dried with DCM and the side-chain protecting groups were cleaved with the standard deprotection cocktail (95% TFA, 2.5% H2O and 2.5% TIPS) or with reagent K [TFA 82.5%, phenol 5%, H2O 5%, thioanisole 5% and 1,2-ethanedithiol (EDT) 2.5%] for 3 h.
SPOT membrane screening. Membranes were incubated with PBS pH 7.2+0.5% bovine serum albumin (BSA) for 1 h. After the incubation period, the membrane was dried and scanned with an Amershan Typhoon scanner, at 400V, Cy3 wavelength (532 nm). A TIF file of the screening and a file with the blank values were generated using the Image Quant software. Afterwards, a solution of 50 nM of TAMRA labelled PSD-95-PDZ2 domain was prepared in PBS pH 7.2+0.5% BSA and was added to the membrane. The membrane was left incubating in a Polymax 1040 rocking table for 1 h protected from the light. Passed the incubation time, the excess of labelled protein was removed by washing the membrane 3 times with PBS+0.5% BSA. Finally, the membrane fluorescence values were measured with the Amershan Typhoon scanner at 400V, Cy3 wavelength (532 nm). Using the Image Quant software, the TIF image of the screening and a file with the fluorescence values of the peptides with the TAMRA labelled PSD-95-PDZ2 were generated. The blank was then subtracted from the fluorescence values of the peptides screened against the TAMRA labelled PSD-95-PDZ2.
A deep mutational scan was performed on the WT scaffold, exchanging each AA to the remaining 19 L-AAs. Each array contained three copies of the individual peptides as technical replicates. Additionally, three controls were included in the design: the cyclic nNOS β-hairpin WT control (positive control), a linear nNOS peptide (cyclization control) and a cyclic nNOS β-hairpin with a F111V substitution (negative control previously tested in FP competition assays). For array screening, a mutation in PSD-95-PDZ2 residue V178 (PSD-95-PDZ2-V178C) was introduced, which was subsequently labelled with TAMRA maleimide. […]

pKi (PSD-95-PDZ2 [1]) | Relative Ki (Ki mut/Ki WT) (PSD-95-PDZ2 [1]) | Normalized SPOT fluorescence (Mut/WT) (PSD-95-PDZ2 [2]) | SMILES
6.38 | 0.28 | 2.33 | CC[C@H](C)[C@@H]1NC(=O)[C@H]([C@@H](C)O)NC(=O)[C@H](CCCCN)NC(=O)[C@@H]2CCCN2C(=O)[C@H]([C@@H](C)O)NC(=O)[C@@H]2CCCN2C(=O)[C@H](CC(=O)O)NC(=O)CNC(=O)[C@H]([C@@H](C)O)NC(=O)[C@H](Cc2ccccc2)NC(=O)[C@H]([C@@H](C)O)NC(=O)[C@H]([C@@H](C)O)NC(=O)[C@H](CCC(=O)O)NC(=O)[C@H](CC(C)C)NC(=O)[C@H](Cc2c[nH]cn2)NC(=O)[C@H]([C@@H](C)O)NC(=O)[C@H](CCC(N)=O)NC(=O)CNC(=O)[C@H]2CCCN2C(=O)[C@H](CCC(N)=O)NC(=O)[C@H]([C@@H](C)O)NC(=O)[C@H](C(C)C)NC(=O)[C@H](CCCNC(=N)N)NC1=O [compound 30] (cyclo(THLETTFTGDPTPKTIRVTQ[dP]GQ))
6.32 | 0.32 | 1.85 | CC[C@H](C)[C@@H]1NC(=O)[C@H]([C@@H](C)O)NC(=O)[C@H](CCCCN)NC(=O)[C@@H]2CCCN2C(=O)[C@H](CC(=O)O)NC(=O)CNC(=O)[C@H](CC(=O)O)NC(=O)CNC(=O)[C@H]([C@@H](C)O)NC(=O)[C@H](Cc2ccccc2)NC(=O)[C@H]([C@@H](C)O)NC(=O)[C@H]([C@@H](C)O)NC(=O)[C@H](CCC(=O)O)NC(=O)[C@H](CC(C)C)NC(=O)[C@H](Cc2c[nH]cn2)NC(=O)[C@H]([C@@H](C)O)NC(=O)[C@H](CCC(N)=O)NC(=O)CNC(=O)[C@H]2CCCN2C(=O)[C@H](CCC(N)=O)NC(=O)[C@H]([C@@H](C)O)NC(=O)[C@H](C(C)C)NC(=O)[C@H](CCCNC(=N)N)NC1=O [compound 32] (cyclo(THLETTFTGDGDPKTIRVTQ[dP]GQ))
6.38 | 0.28 | 1.37 | CC[C@H](C)[C@@H]1NC(=O)[C@H]([C@@H](C)O)NC(=O)[C@H](CCCCN)NC(=O)[C@@H]2CCCN2C(=O)[C@H](CCC(=O)O)NC(=O)CNC(=O)[C@H](CC(=O)O)NC(=O)CNC(=O)[C@H]([C@@H](C)O)NC(=O)[C@H](Cc2ccccc2)NC(=O)[C@H]([C@@H](C)O)NC(=O)[C@H]([C@@H](C)O)NC(=O)[C@H](CCC(=O)O)NC(=O)[C@H](CC(C)C)NC(=O)[C@H](Cc2c[nH]cn2)NC(=O)[C@H]([C@@H](C)O)NC(=O)[C@H](CCC(N)=O)NC(=O)CNC(=O)[C@H]2CCCN2C(=O)[C@H](CCC(N)=O)NC(=O)[C@H]([C@@H](C)O)NC(=O)[C@H](C(C)C)NC(=O)[C@H](CCCNC(=N)N)NC1=O [compound 33] (cyclo(THLETTFTGDGEPKTIRVTQ[dP]GQ))
 | 2.51 | 2.00 | CC[C@H](C)[C@@H]1NC(=O)[C@H]([C@@H](C)O)NC(=O)[C@H](CCCCN)NC(=O)[C@@H]2CCCN2C(=O)[C@H]([C@@H](C)O)NC(=O)CNC(=O)[C@H](CC(=O)O)NC(=O)CNC(=O)[C@H](CCSC)NC(=O)[C@H](Cc2ccccc2)NC(=O)[C@H]([C@@H](C)O)NC(=O)[C@H]([C@@H](C)O)NC(=O)[C@H](CCC(=O)O)NC(=O)[C@H](CC(C)C)NC(=O)[C@H](Cc2c[nH]cn2)NC(=O)[C@H]([C@@H](C)O)NC(=O)[C@H](CCC(N)=O)NC(=O)CNC(=O)[C@H]2CCCN2C(=O)[C@H](CCC(N)=O)NC(=O)[C@H]([C@@H](C)O)NC(=O)[C@H](C(C)C)NC(=O)[C@H](CCCNC(=N)N)NC1=O [compound 37]
 | 1.31 | 3.50 | CC[C@H](C)[C@@H]1NC(=O)[C@H]([C@@H](C)O)NC(=O)[C@H](CCCCN)NC(=O)[C@@H]2CCCN2C(=O)[C@H]([C@@H](C)O)NC(=O)CNC(=O)[C@H](CC(=O)O)NC(=O)CNC(=O)[C@H]([C@@H](C)O)NC(=O)[C@H](Cc2ccccc2)NC(=O)[C@H]([C@@H](C)O)NC(=O)[C@H]([C@@H](C)O)NC(=O)[C@H](CCC(=O)O)NC(=O)[C@H](CC(C)C)NC(=O)[C@H](Cc2c[nH]cn2)NC(=O)[C@H]([C@@H](C)O)NC(=O)[C@H](CCC(N)=O)NC(=O)CNC(=O)[C@H]2CCCN2C(=O)[C@H](CCCNC(=N)N)NC(=O)[C@H](CCCNC(=N)N)NC(=O)[C@H](C(C)C)NC(=O)[C@H](CCCNC(=N)N)NC1=O [compound 45] (cyclo(THLETTFTGDGTPKTIRVRR[dP]GQ))

— patent publication US20230220021A1, “CYCLIC PEPTIDE INHIBITORS OF PSD-95 AND USES THEREOF” (University of Copenhagen, priority 2020, published 2023)
